Test results: ChEMBL document CHEMBL5500417, “Discovery of Novel 2-Oxoacetamide Derivatives as B3GAT3 Inhibitors for the Treatment of Hepatocellular Carcinoma” (J Med Chem, 2024)
pIC50, pKd: −log10 of the molar value.

Assays:
Huh-7 = test: cells; conditions: Homo sapiens, Huh-7, 72 h
Description: Antitumor activity against human Huh-7 cells assessed as inhibition of cell proliferation measured after 72 hrs by CCK-8 assay

H4 = test: cells; conditions: Homo sapiens, H4, 72 h
Description: Anti-tumor activity against human H4 cells assessed as inhibition of cell growth measured after 72 hrs by CCK-8 assay

PLC-PRF-5 = test: cells; conditions: Homo sapiens, PLC-PRF-5, 72 h
Description: Antitumor activity against human PLC-PRF-5 cells assessed as inhibition of cell proliferation measured after 72 hrs by CCK-8 assay

MKN-45 = test: cells; conditions: Homo sapiens, MKN-45, 72 h
Description: Anti-tumor activity against human MKN-45 cells assessed as inhibition of cell growth measured after 72 hrs by CCK-8 assay

HCCLM3 [1] = test: cells; conditions: Homo sapiens, HCCLM3, 72 h
Description: Antitumor activity against human HCCLM3 cells assessed as inhibition of cell proliferation measured after 72 hrs by CCK-8 assay

HCCLM3 [2] = test: In vivo-antitumor activity against human HCCLM3 cells xenografted BALB/c mouse model assessed as tumor growth inhibitor at 10 mg/kg, IG once daily measured after 31 days relative to control; conditions: HCCLM3, po, 744 h, read-out: TGI
[3] = target: T1, Galactosylgalactosylxylosylprotein 3-beta-glucuronosyltransferase 3 (Homo sapiens, UniProt O94766); test: Binding affinity to biotinylated B3GAT3 (unknown origin) assessed as dissociation constant by biolayer interferometry (BLI) analysis
T1 sequence (O94766 whole entry): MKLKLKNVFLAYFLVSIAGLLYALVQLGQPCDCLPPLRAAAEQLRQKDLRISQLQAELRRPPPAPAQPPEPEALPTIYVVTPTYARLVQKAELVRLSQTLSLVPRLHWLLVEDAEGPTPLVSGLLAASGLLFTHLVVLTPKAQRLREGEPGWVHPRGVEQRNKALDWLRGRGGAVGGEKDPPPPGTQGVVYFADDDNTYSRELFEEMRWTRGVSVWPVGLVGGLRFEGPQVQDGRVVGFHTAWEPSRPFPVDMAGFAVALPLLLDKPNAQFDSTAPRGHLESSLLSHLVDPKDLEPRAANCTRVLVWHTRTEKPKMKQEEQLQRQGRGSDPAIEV

HT-29 = test: cells; conditions: Homo sapiens, HT-29, 72 h
Description: Anti-tumor activity against human HT-29 cells assessed as inhibition of cell growth measured after 72 hrs by CCK-8 assay

in vitro [4] = conditions: rat, liver microsomes
Description: Metabolic stability in rat liver microsomes assessed as half life at 0.02 uM measured upto 60 mins by LC-MS/MS analysis

SW-620 = test: cells; conditions: Homo sapiens, SW-620, 72 h
Description: Anti-tumor activity against human SW620 cells assessed as inhibition of cell growth measured after 72 hrs by CCK-8 assay

SNU-387 = test: cells; conditions: Homo sapiens, SNU-387, 72 h
Description: Antitumor activity against human SNU-387 cells assessed as inhibition of cell proliferation measured after 72 hrs by CCK-8 assay

HCC1937 = test: cells; conditions: Homo sapiens, HCC1937, 72 h
Description: Anti-tumor activity against human HCC1937 cells assessed as inhibition of cell growth measured after 72 hrs by CCK-8 assay

HCCLM3 [5] = test: In vivo-antitumor activity against human HCCLM3 cells xenografted BALB/c mouse model assessed as reduction in tumor weight at 5 mg/kg, IG once daily measured after 31 days relative to control; conditions: HCCLM3, po, 744 h, read-out: INH
NCI-H1650 = test: cells; conditions: Homo sapiens, NCI-H1650, 72 h
Description: Anti-tumor activity against human NCI-H1650 cells assessed as inhibition of cell growth measured after 72 hrs by CCK-8 assay

MHCC97H [6] = test: In vivo-antitumor activity against human MHCC97H cells xenografted BALB/c mouse model assessed as tumor growth inhibitor at 5 mg/kg, IG once daily measured after 31 days relative to control; conditions: po, 744 h, read-out: TGI
Hep 3B2 = test: cells; conditions: Homo sapiens, Hep3B, 72 h
Description: Antitumor activity against human Hep3B cells assessed as inhibition of cell proliferation measured after 72 hrs by CCK-8 assay

AGS = test: cells; conditions: Homo sapiens, 72 h
Description: Anti-tumor activity against human AGS cells assessed as inhibition of cell growth measured after 72 hrs by CCK-8 assay

in vitro [7] = conditions: mouse, liver microsomes
Description: Metabolic stability in mouse liver microsomes assessed as half life at 0.02 uM measured upto 60 mins by LC-MS/MS analysis

THLE-2 = test: cells; conditions: Homo sapiens, THLE-2, 72 h
Description: Antitumor activity against human THLE-2 cells assessed as inhibition of cell proliferation measured after 72 hrs by CCK-8 assay

HCCLM3 [8] = test: cells; conditions: Homo sapiens, HCCLM3, 72 h; remark: listed apart in the source
Description: Antitumor activity against human HCCLM3 cells assessed as inhibition of cell growth measured after 72 hrs by CCK-8 assay

in vivo [9] = conditions: BALB/c, mouse, po, 10 mg/kg
Description: AUC in BALB/c mouse at 10 mg/kg, po measured upto 24 hrs by LC-MS/MS analysis

PC-3 = test: cells; conditions: Homo sapiens, PC-3, 72 h
Description: Anti-tumor activity against human PC-3 cells assessed as inhibition of cell growth measured after 72 hrs by CCK-8 assay

THP-1 = test: cells; conditions: Homo sapiens, THP-1, 72 h
Description: Anti-tumor activity against human THP-1 cells assessed as inhibition of cell growth measured after 72 hrs by CCK-8 assay

U-937 = test: cells; conditions: Homo sapiens, U-937, 72 h
Description: Anti-tumor activity against human U-937 cells assessed as inhibition of cell growth measured after 72 hrs by CCK-8 assay

in vivo [10] = conditions: BALB/c, mouse, iv, 1.2 mg/kg
Description: AUC in BALB/c mouse at 1.2 mg/kg, iv measured upto 24 hrs by LC-MS/MS analysis

MHCC97H [11] = test: In vivo-antitumor activity against human MHCC97H cells xenografted BALB/c mouse model assessed as tumor growth inhibitor at 10 mg/kg, IG once daily measured after 31 days relative to control; conditions: po, 744 h, read-out: TGI
Jurkat = test: cells; conditions: Homo sapiens, 72 h
Description: Anti-tumor activity against human Jurkat cells assessed as inhibition of cell growth measured after 72 hrs by CCK-8 assay

U-251 = test: cells; conditions: Homo sapiens, U-251, 72 h
Description: Anti-tumor activity against human U-251MG cells assessed as inhibition of cell growth measured after 72 hrs by CCK-8 assay

MHCC97H [12] = test: In vivo-antitumor activity against human MHCC97H cells xenografted BALB/c mouse model assessed as tumor growth inhibitor at 20 mg/kg, IG once daily measured after 31 days relative to control; conditions: po, 744 h, read-out: TGI
in vivo [13] = conditions: BALB/c, mouse, po, 10 mg/kg; remark: listed apart in the source
Description: Tmax in BALB/c mouse at 10 mg/kg, po measured upto 24 hrs by LC-MS/MS analysis

MDA-MB-231 = test: cells; conditions: Homo sapiens, MDA-MB-231, 72 h
Description: Anti-tumor activity against human MDA-M8-231 cells assessed as inhibition of cell growth measured after 72 hrs by CCK-8 assay

Calu-3 = test: cells; conditions: Homo sapiens, Calu-3, 72 h
Description: Anti-tumor activity against human Calu-3 cells assessed as inhibition of cell growth measured after 72 hrs by CCK-8 assay

[14] = Clearance in BALB/c mouse at 10 mg/kg, po measured upto 24 hrs by LC-MS/MS analysis; conditions: in vivo
MHCC97H [15] = test: Cytotoxicity against (shRNA)-Ctrl transfected human MHCC97H cells assessed as cell viability measured after 72 hrs by CCK8 assay
NCI-H446 = test: cells; conditions: Homo sapiens, NCI-H446, 72 h
Description: Anti-tumor activity against human NCI-H446 cells assessed as inhibition of cell growth measured after 72 hrs by CCK-8 assay

in vivo [16] = conditions: BALB/c, mouse, iv, 1.2 mg/kg; remark: listed apart in the source
Description: Cmax in BALB/c mouse at 1.2 mg/kg, iv measured upto 24 hrs by LC-MS/MS analysis

in vivo [17] = conditions: BALB/c, mouse, iv, 1.2 mg/kg; remark: listed apart in the source
Description: Tmax in BALB/c mouse at 1.2 mg/kg, iv measured upto 24 hrs by LC-MS/MS analysis

SK-OV-3 = test: cells; conditions: Homo sapiens, SK-OV-3, 72 h
Description: Anti-tumor activity against human SK-OV-3 cells assessed as inhibition of cell growth measured after 72 hrs by CCK-8 assay

Hepa 1-6 = test: cells; conditions: Mus musculus, Hepa1-6, 72 h
Description: Antitumor activity against mouse Hepa1-6 cells assessed as inhibition of cell proliferation measured after 72 hrs by CCK-8 assay

[18] = Half life in BALB/c mouse at 10 mg/kg, po measured upto 24 hrs by LC-MS/MS analysis; conditions: in vivo
[19] = target: T1, Galactosylgalactosylxylosylprotein 3-beta-glucuronosyltransferase 3; test: Binding affinity to CM5 sensor chip immobilized human B3GAT3 assessed as dissociation constant by SPR analysis
[20] = Half life in BALB/c mouse at 1.2 mg/kg, iv measured upto 24 hrs by LC-MS/MS analysis; conditions: in vivo
[21] = Clearance in BALB/c mouse at 1.2 mg/kg, iv measured upto 24 hrs by LC-MS/MS analysis; conditions: in vivo
MEG-01 = test: cells; conditions: Homo sapiens, MEG-01, 72 h
Description: Anti-tumor activity against human MEG-01 cells assessed as inhibition of cell growth measured after 72 hrs by CCK-8 assay

MHCC97H [22] = test: cells; conditions: Homo sapiens, 72 h
Description: Antitumor activity against human MHCC97H cells assessed as inhibition of cell proliferation measured after 72 hrs by CCK-8 assay

in vivo [23] = conditions: BALB/c, mouse, po, 10 mg/kg; remark: listed apart in the source
Description: Oral bioavailability in BALB/c mouse at 10 mg/kg measured upto 24 hrs by LC-MS/MS analysis

MHCC97H [24] = test: Cytotoxicity against (shRNA)-mediated B3GAT3 KO human MHCC97H cells assessed as cell viability measured after 72 hrs by CCK8 assay
in vitro [25] = conditions: human, liver microsomes
Description: Metabolic stability in human liver microsomes assessed as half life at 0.02 uM measured upto 60 mins by LC-MS/MS analysis

in vivo [26] = conditions: BALB/c, mouse, po, 10 mg/kg; remark: listed apart in the source
Description: Cmax in BALB/c mouse at 10 mg/kg, po measured upto 24 hrs by LC-MS/MS analysis

K562 = test: cells; conditions: Homo sapiens, K562, 72 h
Description: Anti-tumor activity against human K562 cells assessed as inhibition of cell growth measured after 72 hrs by CCK-8 assay

MHCC97H [27] = test: cells; conditions: Homo sapiens, 72 h; remark: listed apart in the source
Description: Antitumor activity against human MHCC97H cells assessed as inhibition of cell growth measured after 72 hrs by CCK-8 assay

## COC(=O)c1ccc2[nH]cc(C(=O)C(=O)NC3CCN(c4ccc(C)cc4Cl)C3=O)c2c1 (stereo unspecified)
Huh-7
  pIC50: 4.90
H4
  pIC50: 5.18
PLC-PRF-5
  pIC50: 5.19
MKN-45
  pIC50: 4.86
HCCLM3 [1]
  pIC50: 4.74
HCCLM3 [2]
  inhibition in vivo at 10 mg/kg: 59%
[3]
  pKd: 5.18
HT-29
  pIC50: 5.33
In vitro [4]
  half-life at 1 h, 0.02 µM: 25.9 min
SW-620
  pIC50: 5.06
SNU-387
  pIC50: 4.93
HCC1937
  pIC50: 4.32
HCCLM3 [5]
  inhibition in vivo at 5 mg/kg: 58.8%
NCI-H1650
  pIC50: 4.67
MHCC97H [6]
  inhibition in vivo at 5 mg/kg: 23.4%
Hep 3B2
  pIC50: 4.91
AGS
  pIC50: 5.27
In vitro [7]
  half-life at 1 h, 0.02 µM: 37.9 min
THLE-2
  pIC50: < 4.70
HCCLM3 [8]
  pIC50: 5.21
In vivo [9]
  AUC at 24 h: 9520 ng·h/mL
PC-3
  pIC50: 4.86
THP-1
  pIC50: 4.62
U-937
  pIC50: 5.22
In vivo [10]
  AUC at 24 h: 1850 ng·h/mL
MHCC97H [11]
  inhibition in vivo at 10 mg/kg: 70%
Jurkat
  pIC50: 5.17
U-251
  pIC50: 5.21
MHCC97H [12]
  inhibition in vivo at 20 mg/kg: 73.5%
In vivo [13]
  Tmax at 24 h: 13.2 min
MDA-MB-231
  pIC50: 4.91
Calu-3
  pIC50: 4.38
[14]
  CL/F at 24 h: 20 mL/min/kg
MHCC97H [15]
  pIC50: 5.16
NCI-H446
  pIC50: 4.94
In vivo [16]
  Cmax at 24 h: 3350 ng/mL
In vivo [17]
  Tmax at 24 h: 4.8 min
SK-OV-3
  pIC50: 4.01
Hepa 1-6
  pIC50: 5.21
[18]
  half-life at 24 h: 251 min
[19]
  pKd: 5.40
[20]
  half-life at 24 h: 46.2 min
[21]
  clearance at 24 h: 10 mL/min/kg
MEG-01
  pIC50: 4.94
MHCC97H [22]
  pIC50: 4.72
In vivo [23]
  bioavailability at 24 h: 66.4%
MHCC97H [24]
  pIC50: 4.77
In vitro [25]
  half-life at 1 h, 0.02 µM: 17 min
In vivo [26]
  Cmax at 24 h: 9140 ng/mL
K562
  pIC50: 5.08
MHCC97H [27]
  pIC50: 5.19
